Values quoted from earlier work as cited in patent US20100233259A1, “DOSAGE FORM OF ROPINIROLE” (priority 2008, published 2010).

Conditions: in vivo

CCCN(CCC)CCc1cccc2c1CC(=O)N2 [Ropinirole]
half life: 5 to 6 h
